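48-hour exposure; five concentrations; linearly interpolated endpoints. GI50 = concentration required for 50% inhibition of growth. The concentration for full growth arrest is given as TGI.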
Tests used:
Assay in all cases: NCI tumour cell line growth inhibition, 48 h
[1] = tested on: NCI-H226 lung
[2] = tested on: UACC-62 melanoma
[3] = tested on: HOP-92 NSCLC
[4] = tested on: MOLT-4 leukemia
[5] = tested on: UACC-257 melanoma
[6] = tested on: SF-295 CNS
[7] = tested on: SW-620 colon
[8] = tested on: UO-31 renal
[9] = tested on: SNB-19 CNS
[10] = tested on: OVCAR-5 ovarian
[11] = tested on: NCI/ADR-RES ovarian
[12] = tested on: M14 melanoma
[13] = tested on: OVCAR-8 ovarian
[14] = tested on: A498 renal
[15] = tested on: SNB-75 CNS
[16] = tested on: HS 578T breast
[17] = tested on: CAKI-1 renal
[18] = tested on: K-562 leukemia
[19] = tested on: SK-MEL-5 melanoma
[20] = tested on: LOX IMVI melanoma
[21] = tested on: BT-549 breast
[22] = tested on: SF-268 CNS
[23] = tested on: U251 CNS
[24] = tested on: IGROV1 ovarian
[25] = tested on: OVCAR-4 ovarian
[26] = tested on: NCI-H460 lung
[27] = tested on: MALME-3M melanoma
[28] = tested on: SR leukemia
[29] = tested on: CCRF-CEM leukemia
[30] = tested on: SF-539 CNS
[31] = tested on: KM12 colon
[32] = tested on: EKVX NSCLC
[33] = tested on: SK-OV-3 ovarian
[34] = tested on: HT29 colon
[35] = tested on: MDA-MB-468 breast
[36] = tested on: 786-0 renal
[37] = tested on: HCT-15 colon
[38] = tested on: NCI-H23 lung
[39] = tested on: SK-MEL-28 melanoma
[40] = tested on: MDA-MB-435
[41] = tested on: PC-3 prostate
[42] = tested on: OVCAR-3 ovarian
[43] = tested on: ACHN renal
[44] = tested on: A549 NSCLC
[45] = tested on: SK-MEL-2 melanoma
[46] = tested on: RPMI-8226 leukemia
[47] = tested on: SN12C renal
[48] = tested on: HOP-62 NSCLC
[49] = tested on: T-47D breast
[50] = tested on: RXF 393 renal
[51] = tested on: NCI-H522 lung
[52] = tested on: TK-10 renal
[53] = tested on: DU-145 prostate
[54] = tested on: MCF7 breast
[55] = tested on: COLO 205 colon
[56] = tested on: MDA-MB-231 breast
[57] = tested on: HCC-2998 colon
[58] = tested on: HCT-116 colon
[59] = tested on: HL-60(TB) leukemia

## CC(=C(c1ccc(OCCN2CCCCCC2)cc1)c1ccc(OCCN2CCCCCC2)cc1)c1ccc(Cl)cc1
[1]
  GI50: 5.96 µM
  TGI: 12.6 µM
[2]
  GI50: 1.09 µM
  TGI: 3.57 µM
[3]
  GI50: 2.01 µM
  TGI: 8.1 µM
[4]
  GI50: 1.08 µM
  TGI: 3.33 µM
[5]
  GI50: 1.44 µM
  TGI: 5.62 µM
[6]
  GI50: 1.97 µM
  TGI: 7.2 µM
[7]
  GI50: 0.757 µM
  TGI: 1.75 µM
[8]
  GI50: 4.66 µM
  TGI: 9.6 µM
[9]
  GI50: 6.06 µM
  TGI: 11.5 µM
[10]
  GI50: 5 µM
  TGI: 10.1 µM
[11]
  GI50: 5.82 µM
  TGI: 11.6 µM
[12]
  GI50: 0.838 µM
  TGI: 1.85 µM
[13]
  GI50: 7.95 µM
  TGI: 18.5 µM
[14]
  GI50: 5.47 µM
  TGI: 11 µM
[15]
  GI50: 4.78 µM
  TGI: 9.96 µM
[16]
  GI50: 5.25 µM
  TGI: 13.3 µM
[17]
  GI50: 4.69 µM
  TGI: 9.75 µM
[18]
  GI50: 0.908 µM
  TGI: 40.7 µM
[19]
  GI50: 2.84 µM
  TGI: 8.15 µM
[20]
  GI50: 0.776 µM
  TGI: 1.61 µM
[21]
  GI50: 7.09 µM
  TGI: 13.3 µM
[22]
  GI50: 5.44 µM
  TGI: 11.4 µM
[23]
  GI50: 5.31 µM
  TGI: 11.3 µM
[24]
  GI50: 5.09 µM
  TGI: 10.3 µM
[25]
  GI50: 5.76 µM
  TGI: 11.7 µM
[26]
  GI50: 1.37 µM
  TGI: 5.14 µM
[27]
  GI50: 0.745 µM
  TGI: 1.66 µM
[28]
  GI50: 0.963 µM
  TGI: 3.33 µM
[29]
  GI50: 1.11 µM
  TGI: 3.88 µM
[30]
  GI50: 4.54 µM
  TGI: 9.49 µM
[31]
  GI50: 4.56 µM
  TGI: 10.1 µM
[32]
  GI50: 5.77 µM
  TGI: 11.5 µM
[33]
  GI50: 6.46 µM
  TGI: 12.1 µM
[34]
  GI50: 0.942 µM
  TGI: 2.55 µM
[35]
  GI50: 1.3 µM
  TGI: 6.08 µM
[36]
  GI50: 3.62 µM
  TGI: 10.5 µM
[37]
  GI50: 1.48 µM
  TGI: 5.7 µM
[38]
  GI50: 5.58 µM
  TGI: 11.1 µM
[39]
  GI50: 0.682 µM
  TGI: 1.29 µM
[40]
  GI50: 0.807 µM
  TGI: 1.9 µM
[41]
  GI50: 4.53 µM
  TGI: 10 µM
[42]
  GI50: 2.83 µM
  TGI: 8.44 µM
[43]
  GI50: 5.9 µM
  TGI: 11.2 µM
[44]
  GI50: 4.64 µM
  TGI: 12.1 µM
[45]
  GI50: 6.88 µM
  TGI: 12.6 µM
[46]
  GI50: 1.29 µM
  TGI: 4.7 µM
[47]
  GI50: 5.38 µM
  TGI: 10.9 µM
[48]
  GI50: 5.77 µM
  TGI: 11.6 µM
[49]
  GI50: 2.89 µM
  TGI: 9.27 µM
[50]
  GI50: 1.76 µM
  TGI: 7.23 µM
[51]
  GI50: 4.84 µM
  TGI: 10.1 µM
[52]
  GI50: 6.19 µM
  TGI: 11.7 µM
[53]
  GI50: 5.19 µM
  TGI: 10.4 µM
[54]
  GI50: 0.654 µM
  TGI: 1.77 µM
[55]
  GI50: 0.813 µM
  TGI: 1.62 µM
[56]
  GI50: 4.19 µM
  TGI: 8.99 µM
[57]
  GI50: 1.05 µM
  TGI: 3.86 µM
[58]
  GI50: 1.49 µM
  TGI: 6.22 µM
[59]
  GI50: 1.32 µM
  TGI: 9.39 µM

## O=C(Nc1ccc(Cl)c(C(F)(F)F)c1)c1cncc(C#Cc2cnc3ccc(N4CCOCC4)nn23)c1
[1]
  GI50: 0.361 µM
  TGI: 12.5 µM
[2]
  GI50: 0.785 µM
  TGI: 3.63 µM
[3]
  GI50: 0.255 µM
  TGI: 1.55 µM
[4]
  GI50: 1.59 µM
  TGI: 4.77 µM
[5]
  GI50: 2.12 µM
  TGI: 21.4 µM
[6]
  GI50: 2.65 µM
  TGI: 33.9 µM
[7]
  GI50: 1.65 µM
  TGI: > 81 µM
[8]
  GI50: 0.562 µM
  TGI: 6.24 µM
[9]
  GI50: 2.62 µM
  TGI: 7.93 µM
[10]
  GI50: 0.883 µM
  TGI: 18.7 µM
[11]
  GI50: 2.45 µM
  TGI: 15 µM
[12]
  GI50: 0.717 µM
  TGI: 3.01 µM
[13]
  GI50: 2.5 µM
  TGI: 19.4 µM
[14]
  GI50: 1.98 µM
  TGI: 6.82 µM
[15]
  GI50: 1.15 µM
  TGI: 4.59 µM
[16]
  GI50: 0.809 µM
  TGI: 4.15 µM
[17]
  GI50: 2.07 µM
  TGI: 11.1 µM
[18]
  GI50: 0.728 µM
  TGI: > 81 µM
[19]
  GI50: 2.07 µM
  TGI: 7.78 µM
[20]
  GI50: 0.812 µM
  TGI: 4.35 µM
[21]
  GI50: 1.43 µM
  TGI: 6.62 µM
[22]
  GI50: 2.18 µM
  TGI: 31.5 µM
[23]
  GI50: 3.62 µM
  TGI: > 81 µM
[24]
  GI50: 0.579 µM
  TGI: 4.96 µM
[25]
  GI50: 3.8 µM
  TGI: > 81 µM
[26]
  GI50: 2.67 µM
  TGI: 19.1 µM
[27]
  GI50: 0.854 µM
  TGI: 5.62 µM
[28]
  GI50: 1.41 µM
  TGI: > 81 µM
[29]
  GI50: 2.58 µM
  TGI: > 81 µM
[30]
  GI50: 0.16 µM
  TGI: 1.64 µM
[31]
  GI50: 0.0081 µM
  TGI: 46.4 µM
[32]
  GI50: 2.12 µM
  TGI: 21.2 µM
[33]
  GI50: 2.59 µM
  TGI: 11.5 µM
[34]
  GI50: 1 µM
  TGI: 11.1 µM
[35]
  GI50: 2.54 µM
  TGI: 14.2 µM
[36]
  GI50: 2.68 µM
  TGI: 11.8 µM
[37]
  GI50: 2.55 µM
  TGI: > 81 µM
[38]
  GI50: 0.842 µM
  TGI: 5.33 µM
[39]
  GI50: 1.24 µM
  TGI: 7.05 µM
[40]
  GI50: 1.44 µM
  TGI: > 81 µM
[41]
  GI50: 2.51 µM
  TGI: 24.4 µM
[42]
  GI50: 3.93 µM
  TGI: > 81 µM
[43]
  GI50: 1.54 µM
  TGI: 10.3 µM
[44]
  GI50: 2.15 µM
  TGI: > 81 µM
[45]
  GI50: 1.31 µM
  TGI: 3.23 µM
[46]
  GI50: 2.42 µM
  TGI: > 81 µM
[47]
  GI50: 0.749 µM
  TGI: > 81 µM
[48]
  GI50: 0.912 µM
  TGI: 9.9 µM
[49]
  GI50: 1.89 µM
  TGI: 17.4 µM
[50]
  GI50: 0.818 µM
  TGI: 2.87 µM
[51]
  GI50: 1.6 µM
  TGI: 7.49 µM
[52]
  GI50: 2.06 µM
  TGI: 30.9 µM
[53]
  GI50: 2.86 µM
  TGI: > 81 µM
[54]
  GI50: 1.91 µM
  TGI: 15.4 µM
[55]
  GI50: 1.17 µM
  TGI: 9.92 µM
[56]
  GI50: 0.321 µM
  TGI: 3.1 µM
[57]
  GI50: 2.06 µM
  TGI: 15.2 µM
[58]
  GI50: 0.356 µM
  TGI: 3.11 µM
[59]
  GI50: 0.256 µM
  TGI: 3.87 µM

From PubChem BioAssay (NCI)
